Paper PMC11091117, “A fluorescently-tagged tick kinin neuropeptide triggers peristalsis and labels tick midgut muscles” (Scientific Reports, 2024)
Entries after “also recorded” stand apart in the source; their conditions may differ.

How the values were obtained:
[1] = test system: tick kinin receptor (CHO-K1 BMLK3 cells); assay: Fluorescence microscopy validation of labeled peptide specificity on live BMLK3 cells; type: binding, Rhipicephalus microplus
Procedure: BMLK3 and vector-only cells were cultured in selective media (F-12K medium containing 10% fetal bovine serum and 800 µg/mL-1 of G418 sulfate), cells were seeded in […] (CELLSTAR®, Greiner Bio-One®, Monroe, NC USA) at 20,000 cells per well and were incubated overnight. The next assay, the cell culture medium was removed, and cells were rinsed twice with 200 µl DPBS, and 180 µl of HBSS buffer was added into each well. The peptide stock solutions were prepared in 1% DMSO in HBSS at 100 µM. TMR-RK8 (20 µl) was added into each well and incubated with the cells for 5 min at room temperature. The medium was then removed with a pipette and the cells were rinsed twice with 200 µl HBSS, and DAPI (VECTASHIELD® H-1200, Vector Laboratories) was added (20 µl of 0.15 µg/ml) for visualizing the cell nuclei. Cells were rinsed twice with 200 µl of HBSS, and finally 180 µl HBSS per well was added.
The cells were immediately imaged under a Zeiss Axio Observer® inverted fluorescence microscope. The exposure time for the Bodipy-Tetramethylrhodamine-X (BPTmX) fluorescence channel was the same for BMLK3 cells and V/O cells. DAPI imaging was done subsequently using the same focal height as the BPTmx channel.

[2] = test system: tick midgut; assay: Tick midgut contraction assay with EthoVision video analysis; parameters: species or system Rhipicephalus sanguineus
Text: Individual female ticks were immobilized on a Petri dish filled with wax by submerging their legs in melted wax heated with a soldering pencil (Electronic Control Soldering Station EC 1000, Weller, Apex, North Carolina, USA). Females were dissected under physiological saline following the protocol described by Tidwell et al.[51]. The tick was cut along the edge of the scutum/alloscutum using a stainless steel #12 scalpel blade (Integra Miltex, York, PA, USA), after which the scutum was removed with a pair of fine forceps. To expose the midgut for removal, the tracheae, Malpighian tubules, ovaries, rectal sac, and synganglion were removed with fine forceps in that order. The midgut was then carefully removed and placed into 200 µL of fresh tick saline (See Reagents and Peptides) on a single gasketed incubation chamber (500 µL, Size 22 × 40 mm, Electron Microscopy Sciences, Hatfield, PA). The midguts were then rinsed three times with the physiological tick saline for subsequent fluorescent labeling or activity experiments.
Midguts were dissected from immobilized female ticks under tick saline, as described under the Midgut Dissection. Ten different midguts were used for each of the two treatments, and ticks were of the same age and batch and had been maintained under the same conditions. Dissected midguts were placed individually into 200 µL of tick saline for 10 min at 28 °C on a gasketed glass coverslip (500 µL, Size 22 × 40 mm) serving as incubation chamber. […] After the final wash and removal of saline, 200 µL of saline were added, and a microscopy coverslip (24 × 60 mm, VWR, Radnor, PA) was placed over the gasketed portion of the incubation chamber, which height (0.5 mm) fits to prevent the midgut from floating, but still allows midgut peristalsis. The midguts were observed and filmed under a dissecting microscope (Olympus SZ61, Japan) equipped with an Infinity 5 camera (Teledyne Lumenera, Ottawa, ON, Canada). All videos were recorded for 1 min with the INFINITY ANALYZE 7 software (Teledyne Lumenera) at 30 frames/second with a 2464 × 2056 resolution. The field of view in all videos recorded represents 4 × 3.5 mm to capture the entire tick midguts under saline. All video files in Windows Media Video (.wmv) format obtained from the Infinity Analyze 7 software were converted to the MP4 format using CloudConvert (cloudconvert.com, Lunaweb, Munich, Germany) for analyses with the EthoVision XT 17 software (Noldus Information Technology, Wageningen, The Netherlands).
We used the EthoVision 17 XT software to quantify the “activity” (pixel change) of the midguts from the videos recorded. This software defines activity as the percentage of pixels that have changed in the entire defined arena between the current image and previous image. The videos are recorded in 2464 × 2056 resolution and the arena is set to be the entire video screen. Video files were uploaded into the program and analyzed starting from time zero to the end of the 60 s video. Detection settings for activity included the activity threshold which was set to 5 to achieve zero detection when the midgut was immobile. Although the video captured 30 frames (images) per s, for the video analysis we chose a “sample rate” of 7 samples /s, with sample rate being the number of images from the video the EthoVision program analyzes per second. To calculate activity, each pixel of the video image was compared from one image to the next, and the proportion of pixel changes was calculated by dividing the number of pixels changed from one image to the next by the total number of pixels in the image. Care was given for the midgut to occupy most of the arena, as the activity analyses will reflect the midgut movement as a proportion of the total arena. Midgut activity is observed as pixel changes, which are represented by the red-colored pixels in the S4 video. The mean pixel change per midgut was then determined by averaging the pixel changes from all samples within the recording period. […]

TMR-C-GTGEDQAFSPWGamide [TMR-RK8]
labeling of BMLK3 cells, Fig. S1 (in words) ([1]; 1 µM TMR-RK8, 5 min at room temperature, HBSS, Zeiss Axio Observer, BPTmX channel): only observed in the BLMK3 cells
receptor visualization across multiple BMLK3 cells (in words) ([1]; Figs. S1 and S2, BMLK3 cells): consistently visualized with TMR-RK8 across multiple BMLK3 cells
midgut contractions, S4 Video (in words) ([2]; 1 µM TMR-RK8, after 1 min of exposure, 4X speed): Rapid contractions were observed shortly after treatment
midgut peristalsis/contractions (in words) ([2]; 10 µM, 1 min, 28 °C, midguts of unfed females ex vivo, video recorded 1 min): inducing significant midgut peristalsis; also recorded: induced peristalsis
mean activity (mean pixel change, percentage of pixels changed in arena) ([2]; 10 µM, 1 min, rinsed twice, 28 °C, tick saline, 60 s video, 7 samples/s, EthoVision XT 17, activity threshold 5, N = 10 midguts): 1%
mean activity of midguts compared to TMR-Scrambled (in words) ([2]; 10 µM, N = 10 vs N = 10, for the duration of the videos): higher mean activity
pixels changing from each sample to the next ([2]; of 5,065,984 pixels per sample, 10 µM, 1 min, 28 °C, N = 10): about 50,660 pixels
movement of midguts relative to TMR-Scrambled treated midguts ([2]; ratio of mean activity, 10 µM, N = 10 per treatment): 10 factor
